# What was measured:
# NF-κb signaling pathway = assay: Intranuclear movement of p50 and p65 in LPS-stimulated THP-1 cells; type: cell-based; conditions: LPS-treated THP-1 cells; FIG. 1b
# [1] = Plasma stability evaluation; type: in vitro ADME; conditions: LC-MS/MS
# Procedure: Hydrolysis in plasma is a factor which, together with metabolic reactions, impacts fast in-vivo decomposition of a drug and short half-life thereof; plasma stability is a test which assesses these. The compound at a certain concentration was added to plasma and reacted for a certain period, then collected, and LC-MS/MS was used to measure the percentage of compound remaining relative to the amount prior to the reaction.
# PAK2 = target: T1, PAK2 (Homo sapiens, UniProt Q13177); assay: scanMAX Kinase analysis panel (DiscoverX); type: binding; conditions: drug 1 μM in DMSO; from % control
# T1 construct: purchased DiscoverX scanMAX Kinase analysis panel
# T1 sequence (Q13177 whole entry): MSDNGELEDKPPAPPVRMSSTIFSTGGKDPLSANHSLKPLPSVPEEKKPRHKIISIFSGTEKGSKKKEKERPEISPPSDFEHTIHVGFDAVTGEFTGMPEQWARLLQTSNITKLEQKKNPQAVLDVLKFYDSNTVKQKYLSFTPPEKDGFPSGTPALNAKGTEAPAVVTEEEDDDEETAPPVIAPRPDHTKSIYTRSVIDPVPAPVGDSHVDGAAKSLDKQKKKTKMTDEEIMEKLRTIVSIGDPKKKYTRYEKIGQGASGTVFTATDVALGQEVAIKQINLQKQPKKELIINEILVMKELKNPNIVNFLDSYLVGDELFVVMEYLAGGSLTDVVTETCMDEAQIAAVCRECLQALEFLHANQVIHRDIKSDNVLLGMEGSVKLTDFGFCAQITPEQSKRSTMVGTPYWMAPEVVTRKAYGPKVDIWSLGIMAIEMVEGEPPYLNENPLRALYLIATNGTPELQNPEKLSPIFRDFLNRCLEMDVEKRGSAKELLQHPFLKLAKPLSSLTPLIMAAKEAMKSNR
# From the text: (§1) [(Example compound−positive control)/(negative control−positive control)×100]
# CAMKK2 = target: T2, CAMKK2 (Homo sapiens, UniProt Q96RR4); assay: scanMAX Kinase analysis panel (DiscoverX); type: binding; conditions: drug 1 μM in DMSO; from % control
# T2 construct: purchased DiscoverX scanMAX Kinase analysis panel
# T2 sequence (Q96RR4 whole entry): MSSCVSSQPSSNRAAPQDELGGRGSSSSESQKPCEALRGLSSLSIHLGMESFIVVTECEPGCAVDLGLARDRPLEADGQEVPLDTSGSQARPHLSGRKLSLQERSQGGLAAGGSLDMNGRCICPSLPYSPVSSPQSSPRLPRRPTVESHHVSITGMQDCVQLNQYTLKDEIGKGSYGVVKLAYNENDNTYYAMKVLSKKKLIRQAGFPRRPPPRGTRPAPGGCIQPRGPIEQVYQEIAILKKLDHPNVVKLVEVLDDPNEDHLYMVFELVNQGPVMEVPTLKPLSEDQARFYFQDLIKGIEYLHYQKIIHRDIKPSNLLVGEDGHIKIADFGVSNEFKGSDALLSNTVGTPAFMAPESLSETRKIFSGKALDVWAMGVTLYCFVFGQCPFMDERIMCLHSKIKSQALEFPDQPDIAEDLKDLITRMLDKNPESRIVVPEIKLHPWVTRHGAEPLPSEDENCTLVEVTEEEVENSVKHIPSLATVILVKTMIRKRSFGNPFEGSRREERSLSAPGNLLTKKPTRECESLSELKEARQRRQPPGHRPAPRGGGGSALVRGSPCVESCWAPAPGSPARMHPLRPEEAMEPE
# From the text: as §1
# CHEK2 = target: T3, CHEK2 (Homo sapiens, UniProt O96017); assay: scanMAX Kinase analysis panel (DiscoverX); type: binding; conditions: drug 1 μM in DMSO; from % control
# T3 construct: purchased DiscoverX scanMAX Kinase analysis panel
# T3 sequence (O96017 whole entry): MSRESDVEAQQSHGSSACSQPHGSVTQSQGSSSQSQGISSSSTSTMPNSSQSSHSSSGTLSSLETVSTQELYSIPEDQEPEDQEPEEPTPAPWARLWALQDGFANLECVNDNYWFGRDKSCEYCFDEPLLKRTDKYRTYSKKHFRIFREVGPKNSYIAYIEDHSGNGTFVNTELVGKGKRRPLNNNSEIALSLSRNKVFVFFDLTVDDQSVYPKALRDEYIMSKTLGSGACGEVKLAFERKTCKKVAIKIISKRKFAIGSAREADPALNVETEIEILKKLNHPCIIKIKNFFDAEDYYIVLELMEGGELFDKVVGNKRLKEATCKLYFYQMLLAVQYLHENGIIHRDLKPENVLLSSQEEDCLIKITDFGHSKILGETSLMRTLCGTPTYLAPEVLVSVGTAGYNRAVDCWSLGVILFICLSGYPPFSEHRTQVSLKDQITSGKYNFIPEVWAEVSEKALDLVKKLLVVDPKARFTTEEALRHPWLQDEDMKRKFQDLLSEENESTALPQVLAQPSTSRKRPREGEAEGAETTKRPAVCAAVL
# From the text: as §1
# ERK5 = target: T4, ERK5 (Homo sapiens, UniProt Q13164); assay: scanMAX Kinase analysis panel (DiscoverX); type: binding; conditions: drug 1 μM in DMSO; from % control
# T4 construct: purchased DiscoverX
# T4 sequence (Q13164 whole entry): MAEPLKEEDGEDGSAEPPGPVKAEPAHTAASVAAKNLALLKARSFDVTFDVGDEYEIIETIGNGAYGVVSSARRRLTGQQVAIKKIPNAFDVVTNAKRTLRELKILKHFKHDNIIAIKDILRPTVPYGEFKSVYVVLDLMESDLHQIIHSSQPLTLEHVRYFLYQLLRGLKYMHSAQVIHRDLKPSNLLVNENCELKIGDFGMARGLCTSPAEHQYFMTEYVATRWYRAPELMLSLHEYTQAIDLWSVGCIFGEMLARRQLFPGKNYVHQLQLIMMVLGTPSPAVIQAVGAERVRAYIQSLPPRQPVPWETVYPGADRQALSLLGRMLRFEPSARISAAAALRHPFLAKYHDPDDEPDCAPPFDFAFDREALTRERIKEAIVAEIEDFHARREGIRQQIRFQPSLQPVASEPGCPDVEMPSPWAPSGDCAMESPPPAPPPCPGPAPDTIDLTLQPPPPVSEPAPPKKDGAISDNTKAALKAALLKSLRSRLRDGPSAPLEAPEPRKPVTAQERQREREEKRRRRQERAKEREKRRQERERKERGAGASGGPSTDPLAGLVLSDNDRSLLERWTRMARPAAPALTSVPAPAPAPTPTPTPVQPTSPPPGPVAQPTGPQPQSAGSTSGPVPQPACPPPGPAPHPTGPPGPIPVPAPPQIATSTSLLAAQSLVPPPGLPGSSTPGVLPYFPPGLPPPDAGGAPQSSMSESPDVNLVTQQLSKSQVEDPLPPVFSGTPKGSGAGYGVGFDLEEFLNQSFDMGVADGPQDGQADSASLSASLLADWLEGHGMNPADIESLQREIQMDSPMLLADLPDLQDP
# From the text: as §1
# JNK3 = target: T5, JNK3 (Homo sapiens, UniProt P53779); assay: scanMAX Kinase analysis panel (DiscoverX); type: binding; conditions: drug 1 μM in DMSO; from % control
# T5 construct: purchased DiscoverX
# T5 sequence (P53779 whole entry): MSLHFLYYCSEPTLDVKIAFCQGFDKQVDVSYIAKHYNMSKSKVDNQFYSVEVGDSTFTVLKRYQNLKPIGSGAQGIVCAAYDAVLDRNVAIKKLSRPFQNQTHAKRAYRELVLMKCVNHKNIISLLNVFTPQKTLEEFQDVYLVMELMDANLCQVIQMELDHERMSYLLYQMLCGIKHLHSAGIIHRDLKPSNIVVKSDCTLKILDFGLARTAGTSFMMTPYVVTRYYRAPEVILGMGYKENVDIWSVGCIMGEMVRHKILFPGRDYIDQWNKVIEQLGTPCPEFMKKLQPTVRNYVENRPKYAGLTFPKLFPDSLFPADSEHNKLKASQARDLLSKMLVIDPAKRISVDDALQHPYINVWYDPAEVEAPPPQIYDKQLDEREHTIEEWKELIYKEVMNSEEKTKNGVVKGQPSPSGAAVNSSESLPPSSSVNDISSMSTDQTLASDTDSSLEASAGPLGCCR
# From the text: as §1
# [2] = target: T6, JAK1(JH2domain-pseudokinase) (Homo sapiens, UniProt P23458); assay: scanMAX Kinase analysis panel (DiscoverX); type: binding; conditions: drug 1 μM in DMSO; from % control
# T6 construct: JAK1 (JH2domain-pseudokinase); purchased DiscoverX
# From the text: as §1
# MYLK = target: T7, MYLK (Homo sapiens, UniProt Q15746); assay: scanMAX Kinase analysis panel (DiscoverX); type: binding; conditions: drug 1 μM in DMSO; from % control
# T7 construct: purchased DiscoverX scanMAX Kinase analysis panel
# From the text: as §1
# STK33 = target: T8, STK33 (Homo sapiens, UniProt Q9BYT3); assay: scanMAX Kinase analysis panel (DiscoverX); type: binding; conditions: drug 1 μM in DMSO; from % control
# T8 construct: purchased DiscoverX scanMAX Kinase analysis panel
# T8 sequence (Q9BYT3 whole entry): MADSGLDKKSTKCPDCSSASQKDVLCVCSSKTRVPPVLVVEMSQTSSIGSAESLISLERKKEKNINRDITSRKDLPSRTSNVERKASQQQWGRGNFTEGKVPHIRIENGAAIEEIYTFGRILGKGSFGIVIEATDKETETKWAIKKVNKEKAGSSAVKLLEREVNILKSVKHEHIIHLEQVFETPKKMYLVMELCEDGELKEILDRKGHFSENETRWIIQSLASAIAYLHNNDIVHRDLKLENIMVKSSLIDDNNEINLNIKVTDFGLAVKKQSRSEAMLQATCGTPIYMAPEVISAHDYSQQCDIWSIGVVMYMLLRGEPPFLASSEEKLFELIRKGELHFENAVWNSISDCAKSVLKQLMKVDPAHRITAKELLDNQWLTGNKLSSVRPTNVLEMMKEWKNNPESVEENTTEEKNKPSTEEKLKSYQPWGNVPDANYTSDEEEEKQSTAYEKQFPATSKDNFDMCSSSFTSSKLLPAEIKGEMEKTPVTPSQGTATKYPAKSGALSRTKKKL
# From the text: as §1
# PHKG2 = target: T9, PHKG2 (Homo sapiens, UniProt P15735); assay: scanMAX Kinase analysis panel (DiscoverX); type: binding; conditions: drug 1 μM in DMSO; from % control
# T9 construct: purchased DiscoverX scanMAX Kinase analysis panel
# T9 sequence (P15735 whole entry): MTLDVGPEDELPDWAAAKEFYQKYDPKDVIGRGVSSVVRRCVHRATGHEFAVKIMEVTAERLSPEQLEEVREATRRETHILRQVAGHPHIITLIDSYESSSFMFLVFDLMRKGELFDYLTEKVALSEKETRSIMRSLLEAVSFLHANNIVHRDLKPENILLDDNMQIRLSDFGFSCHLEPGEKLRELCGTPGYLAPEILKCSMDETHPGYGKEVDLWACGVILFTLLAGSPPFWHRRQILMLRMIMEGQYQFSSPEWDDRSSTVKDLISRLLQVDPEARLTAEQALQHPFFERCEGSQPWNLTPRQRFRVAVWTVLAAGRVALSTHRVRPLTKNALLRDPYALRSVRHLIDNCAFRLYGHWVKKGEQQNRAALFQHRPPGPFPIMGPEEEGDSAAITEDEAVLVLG
# From the text: as §1
# LRRK2(G2019S) = target: T10, LRRK2(G2019S) (Homo sapiens, UniProt Q5S007, G2019S); assay: scanMAX Kinase analysis panel (DiscoverX); type: binding; conditions: drug 1 μM in DMSO; from % control
# T10 construct: purchased DiscoverX scanMAX Kinase analysis panel
# From the text: as §1
# hERG = hERG (Homo sapiens, UniProt Q12809); assay: hERG analysis
# hERG, sequence (Q12809 whole entry): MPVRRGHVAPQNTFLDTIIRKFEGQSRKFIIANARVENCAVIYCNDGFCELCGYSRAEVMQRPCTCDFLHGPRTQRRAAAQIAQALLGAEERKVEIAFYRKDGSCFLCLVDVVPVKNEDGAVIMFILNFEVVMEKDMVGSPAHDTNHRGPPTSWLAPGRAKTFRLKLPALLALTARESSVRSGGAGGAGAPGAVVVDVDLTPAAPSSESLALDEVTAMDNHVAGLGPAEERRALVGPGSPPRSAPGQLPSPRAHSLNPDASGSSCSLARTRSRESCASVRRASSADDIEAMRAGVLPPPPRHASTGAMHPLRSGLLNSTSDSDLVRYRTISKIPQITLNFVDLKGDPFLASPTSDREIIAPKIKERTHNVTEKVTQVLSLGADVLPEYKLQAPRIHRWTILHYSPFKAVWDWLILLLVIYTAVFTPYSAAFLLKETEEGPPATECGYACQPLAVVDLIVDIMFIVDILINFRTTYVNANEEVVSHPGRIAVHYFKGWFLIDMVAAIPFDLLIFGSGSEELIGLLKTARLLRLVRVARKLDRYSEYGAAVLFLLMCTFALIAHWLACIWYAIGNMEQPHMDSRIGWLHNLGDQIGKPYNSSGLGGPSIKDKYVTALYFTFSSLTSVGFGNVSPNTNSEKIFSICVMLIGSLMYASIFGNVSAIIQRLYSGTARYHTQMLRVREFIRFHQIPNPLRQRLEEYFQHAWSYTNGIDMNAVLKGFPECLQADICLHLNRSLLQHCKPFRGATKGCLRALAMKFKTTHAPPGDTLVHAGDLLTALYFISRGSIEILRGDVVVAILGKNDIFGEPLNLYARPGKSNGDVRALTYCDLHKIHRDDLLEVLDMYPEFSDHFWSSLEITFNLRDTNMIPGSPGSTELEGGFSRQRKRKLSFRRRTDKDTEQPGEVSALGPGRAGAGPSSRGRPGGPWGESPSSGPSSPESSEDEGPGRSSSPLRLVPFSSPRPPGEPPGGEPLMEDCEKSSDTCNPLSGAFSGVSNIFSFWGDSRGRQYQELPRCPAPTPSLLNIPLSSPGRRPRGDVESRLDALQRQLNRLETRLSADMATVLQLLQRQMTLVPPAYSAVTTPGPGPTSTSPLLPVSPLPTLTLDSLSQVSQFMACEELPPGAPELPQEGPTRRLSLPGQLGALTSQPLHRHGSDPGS
# [3] = test system: IMQ-induced psoriasis-like skin inflammation model; assay: Topical treatment in imiquimod (IMQ)-induced psoriasis-like skin inflammation; type: in vivo, BALB/c mice
# Procedure: Dexamethasone (0.15%), the reference compound, was applied topically at 20 μL/mouse on the right ear once daily (QD) during the same study period.
# Fifteen (15) mg imiquimod (IMQ) cream (5%) (Aldara; 3M Pharmaceuticals) was topically administered once daily (QD) on the right ear one hour after treatment from Day 1 to Day 9 for 9 consecutive days, translating to a daily dose of 0.75 mg of the active compound.
# Ear swelling was measured on Day 0 and thereafter 30 min before dosing on Days 2, 4, 6 and 8. On Day 10, ear swelling was measured 24 hours after the last dosing.
# [4] = Metabolic stability (MS) evaluation; type: in vitro ADME
# [5] = Metabolic stability (MS) evaluation; type: in vitro ADME; remark: listed apart in the source
# [6] = test system: 2,4,6-trinitrobenzenesulfonic acid (TNBS) induced colitis mouse model; assay: TNBS induced colitis mouse model; type: in vivo, male BALB/c mice; conditions: 60 mpk orally once daily
# Procedure: In the present experiment, male BALB/c mice (8 weeks old) were used. The experimental animals were subjected to dietary restriction for one day prior to treating with TNBS. Bowel inflammation was induced by administering TNBS (TNBS solution, 1 mg in 0.1 mL 50% ethanol) by submucosal injection in the colon. For the control animals in which inflammation was not induced, only 0.9% NaCl solution without TNBS was administered by submucosal injection in the colon.
# The comparative compound, cyclosporine A, was orally administered once daily, and the TNF-α blocker (Enbrel®) was administered intraperitoneally once daily.
# During the test, changes in body weight, occult bleeding in stool, and stool consistently were examined every day, and serum was collected on day 5 of the experiment. Bowel tissue was collected at the termination of the experiment to measure the weight of the bowel tissue, degree of polymorphonuclear leukocyte (PMN) deposition and degree of myeloperoxidase (MPO) expression.
# [7] = test system: collagen-induced arthritis mouse model; assay: Collagen-induced arthritis mouse model; type: in vivo, male DBA-1 mice
# Procedure: In the present experiment, male DBA-1 mice aged 8 to 10 weeks were used as the animal model. After mixing Bovine Type II Collagen (CII) with the same amount of complete Freud's adjuvant, 100 μL was injected by intradermal injection into the tail of the DBA-1 mouse. After 21 days, the same CII was mixed with the same amount of incomplete Freud's adjuvant (IFA, Chondrex), then 100 μL was injected by intradermal injection into the tail. Observation of symptoms of the mouse model began at this point, and arthritis assessment was carried out every other day. […] In the case of the control group Enbrel (anti-TNF-α), 10 mg/kg was subcutaneously administered once every 2 days, then dexamethasone (0.15 mg/kg), Baricitinib (5 mg/kg), Filgotinib (50 mg/kg), and Tofacitinib (10 mg/kg) were orally administered twice a day; as for arthritis assessment, the scores assessed at the four feet of the mouse were added and divided by 4 to give a mean, based on the mean arthritic index by Rosloniec et al (Reference Literature 1: Brand D D, et al. Nat Protoc. 2007:2(5): 1269-75).
# The scores and criteria for the arthritis assessment are as follows. • Score 0: No edema or erythema. • Score 1: Mild edema and erythema limited to the foot or ankle joint • Score 2: Mild edema and erythema from the ankle joint to the tarsals • Score 3: Moderate edema and erythema from the ankle joint to the metatarsals. • Score 4: Severe edema and skin flaring from the ankle to the entire leg, or stiffness in the leg
# Upon termination of the experiment, the weight of the two hind legs of each mouse were measured and added, and these measurements were compared.
# Vol. 30, No. I, p93-96.; Reference 3: Pine P R, et al. Clin Immunol. 124 (3): 244-57).
# [8] = 30 mg/kg orally twice a day, H&E and T-blue, FIGS. 3c to 3e
smiles,measurement,setting,value
"CCNc1cc(Nc2ccc(C(=O)N3CCC(N4CCOCC4)CC3)cc2OC)nc2[nH]cc(C(F)(F)F)c12 [Compound 1, (4-((4-(ethylamino)-3-(trifluoromethyl)-1H-pyrrolo[2,3-b]pyridine-6-yl)amino)-3-methoxyphenyl)(4-morpholinopiperidine-1-yl)methanone]",intranuclear movement of p50,NF-κb signaling pathway,effectively inhibited
same,intranuclear movement of p65,NF-κb signaling pathway,effectively inhibited
same,"Plasma stability (% remaining, 30 min)",[1]; 30 min,100%
same,"Plasma stability (% remaining, 120 min)",[1]; 120 min,97.2%
same,inhibition at 1 µM,PAK2,≥ 59%
same,inhibition at 1 µM,CAMKK2,40 to 59%
same,inhibition at 1 µM,CHEK2,40 to 59%
same,inhibition at 1 µM,ERK5,40 to 59%
same,inhibition at 1 µM,JNK3,40 to 59%
same,inhibition at 1 µM,[2],40 to 59%
same,inhibition at 1 µM,MYLK,≥ 59%
same,inhibition at 1 µM,STK33,≥ 59%
same,inhibition at 1 µM,PHKG2,≥ 59%
same,inhibition at 1 µM,LRRK2(G2019S),≥ 59%
same,IC50,hERG,4.39 µM
same,"cardiac toxicity (hERG, in words)",hERG,excellent safety in terms of cardiac toxicity
same,IMQ-induced ear swelling,"[3]; 0.3, 1% and 3% topical 20 μL/mouse QD x 9 days, Day 6 to Day 10, dose-dependent, vs no treatment and vehicle",moderate to significant (p<0.05) inhibition
same,severity of skin lesions (histopathological examination of the ear skin),"[3]; 3% topical, vs no treatment group and vehicle group",attenuated significantly
same,"protective effects in IMQ-induced psoriasis-like inflammation (ear swelling, ear weight, histopathological result)","[3]; 3%, high dose, 20 μL/mouse QD×9 days topically",significant (p<0.05) protective effects
same,MS (1 μM) (% remaining during 30 min) Mouse,[4],40%
same,MS (1 μM) (% remaining during 30 min) Rat,[5],20%
same,weight of bowel tissue,[6]; FIG. 6,weight reduction
same,thickness of lamina propria,"[6]; H&E, FIG. 5",decreased in thickness
same,MPO levels,"[6]; bowel tissue, vs control not treated, FIG. 6",lower
same,weight of the joint,"[7]; 30 mg/kg orally twice a day for 2 weeks, FIG. 3b",reduced
same,area of cells where collagen-induced inflammation had occurred (histology),[7]; [8],reduced
same,area of the damaged joint (histology),[7]; [8],reduced

# From patent US12194048B2, “Use of pyrrolopyridine derivatives for preventing or treating inflammatory diseases” (VORONOI CO., LTD., priority 2020, dated 2025)
